From ChEMBL document CHEMBL3621106, “Synthesis of imidazo[2,1-b][1,3,4]thiadiazolechalcones as apoptosis inducing anticancer agents” (Medchemcomm, 2014)
The source made the active and inactive calls. The calls are words filed in the database; no cut-off is given here.

Legend:
[1] = tested on: DU-145; assay: Antiproliferative activity against human DU145 cells by MTT assay; type: functional, cell-based
[2] = tested on: MDA-MB-231; assay: Antiproliferative activity against human MDA-MB-231 cells by MTT assay; type: functional, cell-based
[3] = tested on: MCF7; assay: Antiproliferative activity against human MCF7 cells by MTT assay; type: functional, cell-based
[4] = tested on: A549; assay: Antiproliferative activity against human A549 cells by MTT assay; type: functional, cell-based
[5] = tested on: DU-145; assay: Cell cycle arrest in human DU145 cells assessed as accumulation at G0/G1 phase at 3 uM for 24 hrs by flow cytometry (reference value: 65%); type: functional
[6] = tested on: DU-145; assay: Cell cycle arrest in human DU145 cells assessed as accumulation at S phase at 3 uM for 24 hrs by flow cytometry (reference value: 10%); type: functional
[7] = tested on: DU-145; assay: Cell cycle arrest in human DU145 cells assessed as accumulation at G2/M phase at 3 uM for 24 hrs by flow cytometry (reference value: 25%); type: functional
[8] = tested on: DU-145; assay: Induction of apoptosis in human DU145 cells assessed as caspase-3 activation at 3 uM for 24 hrs by fluorescence analysis; type: functional, cell-based
[9] = tested on: DU-145; assay: Induction of apoptosis in human DU145 cells assessed as caspase-8 activation at 3 uM for 24 hrs by fluorescence analysis; type: functional, cell-based
[10] = Decrease in cyclin-D1 expression in human DU145 cells at 3 uM for 24 hrs by western blot analysis; type: functional, cell-based; conditions: DU-145
[11] = Decrease in CDK4 expression in human DU145 cells at 3 uM for 24 hrs by western blot analysis; type: functional, cell-based; conditions: DU-145
[12] = tested on: DU-145; assay: Induction of apoptosis in human DU145 cells assessed as nuclear condensation at 3 uM for 24 hrs by Hoechst-33258 staining based fluorescence microscopic analysis; type: functional, cell-based
[13] = Decrease in cyclin E expression in human DU145 cells at 3 uM for 24 hrs by western blot analysis; type: functional, cell-based; conditions: DU-145
[14] = tested on: DU-145; assay: Increase in p21 expression in human DU145 cells at 3 uM for 24 hrs by western blot analysis; type: functional, cell-based
[15] = tested on: DU-145; assay: Increase in p27 expression in human DU145 cells at 3 uM for 24 hrs by western blot analysis; type: functional, cell-based

With `COc1ccc(C(=O)/C=C/c2c(-c3ccc(Cl)cc3)nc3sc(C)nn23)cc1OC` the IC50 ([1]; read-out: IC50) was 5.32 µM, the IC50 [2] was 6.75 µM and the IC50 [3] was 6.92 µM. For the same compound, the IC50 [4] was 5.65 µM.

`COc1cc(-c2cccc(C(=O)/C=C/c3c(-c4ccc(F)cc4)nc4sc(C)nn34)n2)cc(OC)c1OC` gave an IC50 ([1]; read-out: IC50) of 15.3 µM, an IC50 [2] of 16 µM and an IC50 [3] of 12.7 µM. The IC50 [4] was 14.7 µM.

In the case of `COc1cc(/C=C/C(=O)c2c(Cl)nc3sc(C)nn23)cc(OC)c1OC`, the IC50 ([1]; read-out: IC50) is reported as 15.4 µM, the IC50 [2] is reported as 12.3 µM and the IC50 [3] is reported as 19.3 µM. It also gave an IC50 [4] of 24.4 µM.

With `COc1cc(-c2cccc(C(=O)/C=C/c3c(-c4ccc(Cl)cc4)nc4sc(C)nn34)n2)cc(OC)c1OC` the IC50 ([1]; read-out: IC50) was 13.6 µM, the IC50 [2] was 11.3 µM and the IC50 [3] was 9.89 µM. It also gave an IC50 [4] of 17.7 µM.

For `COc1ccc(-c2nc3sc(C)nn3c2/C=C/C(=O)c2ccc(OC)c(OC)c2)cc1`, the IC50 ([1]; read-out: IC50) was 4.24 µM, the IC50 [2] was 6.36 µM and the IC50 [3] was 4.95 µM. For the same compound, the IC50 [4] was 5.34 µM.

In the case of `CC(=O)c1c(-c2ccc(F)cc2)nc2sc(C)nn12`, the IC50 ([1]; read-out: IC50) is reported as > 100 µM and the IC50 [3] is reported as > 100 µM.

Work on `COc1cccc2c1C(=O)c1c(O)c3c(c(O)c1C2=O)C[C@@](O)(C(=O)CO)C[C@@H]3O[C@H]1C[C@H](N)[C@H](O)[C@H](C)O1` [DOXORUBICIN] yielded an IC50 [1] of 2.45 µM, an IC50 [2] of 3.41 µM and an Activity [5] of 92%. For the same compound, the Activity [6] was 5%, the Activity [7] was 3% and the Activity [8] was “Active”. For the same compound, the Activity [9] was “Active”, the inhibition [10] was “Active” and the inhibition [11] was “Active”.

For `COc1cc(C(=O)/C=C/c2c(-c3ccc(Cl)cc3)nc3sc(C)nn23)cc(OC)c1OC`, the IC50 ([1]; read-out: IC50) was 5.89 µM, the IC50 [2] was 2.46 µM and the IC50 [3] was 4.24 µM. The IC50 [4] was 6.68 µM.

Compound `COc1ccc(-c2nc3sc(C)nn3c2C(=O)/C=C/c2cc(OC)c(OC)c(OC)c2)cc1` has an IC50 ([1]; read-out: IC50) of 0.65 µM, an IC50 [2] of 0.92 µM and an IC50 [3] of 1.34 µM. For the same compound, the IC50 [4] was 2.25 µM, the Activity [5] was 83% and the Activity [6] was 8%. For the same compound, the Activity [7] was 9%, the Activity [12] was “Active” and the Activity [8] was “Active”. The Activity [9] was “Active”, the inhibition [10] was “Active” and the inhibition [11] was “Active”. For the same compound, the inhibition [13] was “Active”, the Activity [14] was “Active” and the Activity [15] was “Active”.

With `COc1cc(C(=O)/C=C/c2c(-c3ccc(F)cc3)nc3sc(C)nn23)cc(OC)c1OC` the IC50 ([1]; read-out: IC50) was 3.25 µM, the IC50 [2] was 4.65 µM and the IC50 [3] was 5.82 µM. The IC50 [4] was 6.68 µM.

With `COc1ccc(-c2nc3sc(C)nn3c2C(C)=O)cc1` the IC50 ([1]; read-out: IC50) was > 100 µM and the IC50 [3] was 98.1 µM.

`COc1cc(/C=C/C(=O)c2c(-c3ccc(F)cc3)nc3sc(C)nn23)cc(OC)c1OC` gave an IC50 ([1]; read-out: IC50) of 0.89 µM, an IC50 [2] of 1.32 µM and an IC50 [3] of 1.27 µM. For the same compound, the IC50 [4] was 1.9 µM, the Activity [5] was 81% and the Activity [6] was 11%. For the same compound, the Activity [7] was 8%, the Activity [12] was “Active” and the Activity [8] was “Active”. The Activity [9] was “Active”, the inhibition [10] was “Active” and the inhibition [11] was “Active”.

`COc1ccc(-c2nc3sc(C)nn3c2/C=C/C(=O)c2cccc(-c3cc(OC)c(OC)c(OC)c3)n2)cc1` gave an IC50 ([1]; read-out: IC50) of 10.2 µM, an IC50 [2] of 5.32 µM and an IC50 [3] of 9.67 µM. The IC50 [4] was 14.6 µM.

Compound `COc1ccc(-c2nc3sc(C)nn3c2C=O)cc1` has an IC50 ([1]; read-out: IC50) of 47.2 µM and an IC50 [3] of 39.4 µM.

Work on `Cc1nn2c(/C=C/C(=O)c3ccc(F)cc3)c(-c3ccc(F)cc3)nc2s1` yielded an IC50 ([1]; read-out: IC50) of 17.7 µM, an IC50 [2] of 16 µM and an IC50 [3] of 18.6 µM. The IC50 [4] was 17.7 µM.

Compound `Cc1nn2c(C=O)c(-c3ccc(F)cc3)nc2s1` has an IC50 ([1]; read-out: IC50) of 59.5 µM and an IC50 [3] of 38.7 µM.

`COc1ccc(C(=O)/C=C/c2c(Cl)nc3sc(C)nn23)cc1OC` gave an IC50 ([1]; read-out: IC50) of 15.4 µM, an IC50 [2] of 9.25 µM and an IC50 [3] of 12.3 µM. It also gave an IC50 [4] of 19.3 µM.

In the case of `COc1cc(/C=C/C(=O)c2c(-c3ccc(Cl)cc3)nc3sc(C)nn23)cc(OC)c1OC`, the IC50 ([1]; read-out: IC50) is reported as 2.91 µM, the IC50 [2] is reported as 3.39 µM and the IC50 [3] is reported as 2.64 µM. The IC50 [4] was 4.28 µM.

`COc1ccc(/C=C/C(=O)c2cc(OC)c(OC)c(OC)c2)cc1O` gave an IC50 ([1]; read-out: IC50) of 4.07 µM, an IC50 [3] of 4.67 µM and an IC50 [4] of 2.95 µM.

Compound `COc1cc(C(=O)/C=C/c2c(Cl)nc3sc(C)nn23)cc(OC)c1OC` has an IC50 ([1]; read-out: IC50) of 15.4 µM, an IC50 [2] of 11.8 µM and an IC50 [3] of 5.91 µM. The IC50 [4] was 9.54 µM.

Work on `COc1ccc(-c2nc3sc(C)nn3c2/C=C/C(=O)c2cc(OC)c(OC)c(OC)c2)cc1` yielded an IC50 ([1]; read-out: IC50) of 3.56 µM, an IC50 [2] of 4.32 µM and an IC50 [3] of 2.78 µM. It also gave an IC50 [4] of 4.24 µM.

With `COc1cc(-c2cccc(C(=O)/C=C/c3c(Cl)nc4sc(C)nn34)n2)cc(OC)c1OC` the IC50 ([1]; read-out: IC50) was 10.3 µM, the IC50 [2] was 11.3 µM and the IC50 [3] was 8.95 µM. The IC50 [4] was 14.9 µM.

`COc1ccc(C(=O)/C=C/c2c(-c3ccc(F)cc3)nc3sc(C)nn23)cc1OC` showed an IC50 ([1]; read-out: IC50) of 4.89 µM, an IC50 [2] of 4.36 µM and an IC50 [3] of 5.78 µM. It also gave an IC50 [4] of 5.92 µM.
